9 compounds from PubChem BioAssay (NCI) can be followed below.

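Grown in 96-well plates, cells were treated for 48 hours with each compound at five concentrations. Insufficient inhibition: endpoint recorded as highest concentration tested. GI50: concentration for 50% inhibition of growth. The concentration for full growth arrest is given as TGI.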

Some test systems named below: OVCAR-3 ovarian; NCI-H460 lung; M14 melanoma; TK-10 renal; A549 NSCLC; RXF 393 renal; ACHN renal; NCI/ADR-RES ovarian; MALME-3M melanoma; KM12 colon.
What all share (assay): DTP human tumour cell line panel, 48 h

Usually GI50 stands for the concentration giving 50% growth inhibition. In general, TGI refers to the concentration at which net growth stops. A lower TGI goes with greater sensitivity of the cells. In the case of `CCCCOC(=O)c1ccc(N)cc1`, the GI50 was 68 µM with OVCAR-3 ovarian; 34.3 µM in the assay on NCI-H460 lung; 41.1 µM in the assay with M14 melanoma; 92 µM in the assay with TK-10 renal; 32.3 µM with A549 NSCLC; greater than 100 µM in the assay with RXF 393 renal. Moreover, the GI50 is 8.46 µM in the assay on ACHN renal, 92.4 µM in the assay with NCI/ADR-RES ovarian, greater than 100 µM with MALME-3M melanoma and 29.8 µM in the assay on KM12 colon. The total growth inhibition concentration (TGI) in the assay on OVCAR-3 ovarian, in the assay with NCI-H460 lung, in the assay with M14 melanoma, with TK-10 renal, with A549 NSCLC and in the assay on RXF 393 renal was greater than 100 µM throughout. The TGI in the assay on ACHN renal, in the assay on NCI/ADR-RES ovarian, in the assay with MALME-3M melanoma and in the assay with KM12 colon was greater than 100 µM in each case.

As for `CC1=C2CC(C)(C)/C=C\C(=O)/C(C)=C\C3=C[C@H](C)C[C@]3(O2)C1=O`, the concentration for total growth inhibition (TGI) with OVCAR-3 ovarian came out at 1.15 µM; in the assay on NCI-H460 lung it was 14 µM; with M14 melanoma, 1.27 µM; in the assay on TK-10 renal it was 5 µM; with A549 NSCLC, 15.5 µM; in the assay with RXF 393 renal, 2.13 µM. Moreover, the TGI turned out to be 2.9 µM in the assay with ACHN renal, 7.77 µM in the assay on NCI/ADR-RES ovarian, 2.34 µM with MALME-3M melanoma and 6 µM with KM12 colon.

Turning to `CCCCCCCCCCCCCCCC1=NCCN1`, the GI50 with OVCAR-3 ovarian was 2.01 µM; in the assay on TK-10 renal, 1.84 µM; in the assay on A549 NSCLC it was 2.06 µM; in the assay with RXF 393 renal, 1.75 µM; with ACHN renal it was 1.85 µM; with NCI/ADR-RES ovarian, 2.16 µM. The GI50 in the assay on MALME-3M melanoma was 2.38 µM; in the assay on KM12 colon it was 1.83 µM. In addition, the TGI in the assay on OVCAR-3 ovarian stood at 4.02 µM; with TK-10 renal, 3.39 µM; with A549 NSCLC, 4 µM; in the assay with RXF 393 renal, 3.38 µM; in the assay with ACHN renal, 3.7 µM; with NCI/ADR-RES ovarian, 5.09 µM. In addition, the TGI with MALME-3M melanoma was 6.46 µM; in the assay with KM12 colon, 3.45 µM.

Regarding `COc1ccc2c(c1)c(-c1nc(-c3c[nH]c4ncccc34)cs1)cn2CCCN1CCCCC1`, the GI50 with OVCAR-3 ovarian was 1.63 µM; in the assay with NCI-H460 lung it was 1.94 µM; with M14 melanoma, 1.79 µM; with TK-10 renal, 1.59 µM; in the assay with A549 NSCLC it was 1.86 µM; in the assay on RXF 393 renal it was 1.59 µM. Besides, the GI50 with ACHN renal is 1.62 µM; in the assay on NCI/ADR-RES ovarian, 1.72 µM; in the assay with KM12 colon, 1.87 µM. The TGI in the assay on OVCAR-3 ovarian was found to be 3.1 µM; in the assay on NCI-H460 lung, 3.88 µM; with M14 melanoma, 3.51 µM; in the assay with TK-10 renal it was 3.03 µM; in the assay on A549 NSCLC it was 3.53 µM; in the assay with RXF 393 renal, 3.2 µM. Moreover, the total growth inhibition concentration (TGI) with ACHN renal was 3.01 µM; with NCI/ADR-RES ovarian, 3.44 µM; in the assay with KM12 colon it was 3.86 µM.

Turning to `O=C1C(=C(C(F)(F)Cl)C(F)(F)Cl)C2CCC1C2` (stereo not given), the TGI with OVCAR-3 ovarian is greater than 6.36 µM; with NCI-H460 lung, greater than 7.96 µM; with M14 melanoma, 2.38 µM; in the assay with TK-10 renal, 4.29 µM; with A549 NSCLC, greater than 10 µM; in the assay on RXF 393 renal it was 3.07 µM. Also, the TGI is 3.32 µM in the assay with ACHN renal, 5.18 µM in the assay with NCI/ADR-RES ovarian, 3.2 µM in the assay on MALME-3M melanoma and greater than 8.65 µM with KM12 colon.

`COC(=O)c1ccc2c(c1)C(=O)c1c-2n(CCCCl)c(=O)c2cc([N+](=O)[O-])ccc12`: the GI50 is 96.6 µM with OVCAR-3 ovarian; 23.1 µM in the assay with NCI-H460 lung; 82.5 µM with M14 melanoma; greater than 100 µM in the assay on TK-10 renal; greater than 100 µM with RXF 393 renal; 45.2 µM with ACHN renal. In addition, the GI50 in the assay on NCI/ADR-RES ovarian, in the assay with MALME-3M melanoma and in the assay with KM12 colon was greater than 100 µM throughout. Further, the TGI in the assay with OVCAR-3 ovarian, with NCI-H460 lung, in the assay on M14 melanoma, in the assay with TK-10 renal, with RXF 393 renal and in the assay on ACHN renal was greater than 100 µM in each case. The TGI in the assay with NCI/ADR-RES ovarian, with MALME-3M melanoma and in the assay on KM12 colon was greater than 100 µM throughout.

Turning to `CO[C@H]1C=CO[C@@]2(C)Oc3c(C)c(O)c4c(O)c(c(CN5CCN(C)CC5)c(O)c4c3C2=O)NC(=O)/C(C)=C\C=C[C@H](C)[C@H](O)C(C)[C@@H](O)C(C)[C@H](OC(C)=O)[C@@H]1C` (stereo not given in full), the TGI was 14.4 µM in the assay on OVCAR-3 ovarian; greater than 100 µM in the assay on NCI-H460 lung; greater than 75 µM in the assay with M14 melanoma; greater than 100 µM in the assay with TK-10 renal; greater than 100 µM in the assay with A549 NSCLC; greater than 100 µM with RXF 393 renal. For the same compound, the total growth inhibition concentration (TGI) with ACHN renal, in the assay on NCI/ADR-RES ovarian, in the assay with MALME-3M melanoma and in the assay with KM12 colon was greater than 100 µM in each case.

With `Oc1ccc(O)c(-c2cn3c(n2)SCC3)c1`, the GI50 with OVCAR-3 ovarian is 9.36 µM; with NCI-H460 lung, 60.9 µM; in the assay with M14 melanoma, 15.5 µM; in the assay with TK-10 renal, 21.3 µM; in the assay with A549 NSCLC, 47.5 µM; in the assay on RXF 393 renal, 18.4 µM. Moreover, the GI50 in the assay with ACHN renal was 20.4 µM; in the assay on NCI/ADR-RES ovarian, 17.2 µM; in the assay on KM12 colon, 16.9 µM. Moreover, the TGI is 28.1 µM in the assay on OVCAR-3 ovarian; greater than 100 µM with NCI-H460 lung; 31.3 µM in the assay on M14 melanoma; 37.3 µM with TK-10 renal; greater than 100 µM in the assay on A549 NSCLC; 36.2 µM in the assay with RXF 393 renal. Further, the TGI in the assay with ACHN renal stood at 34.7 µM; with NCI/ADR-RES ovarian it was 39.1 µM; with KM12 colon, 38.2 µM.

As for `NCCc1ccc(S(=O)(=O)F)cc1`, the GI50 in the assay with OVCAR-3 ovarian was 31.1 µM; with NCI-H460 lung it was 62.3 µM; in the assay with M14 melanoma, greater than 100 µM; in the assay with TK-10 renal, 59.3 µM; with A549 NSCLC, greater than 100 µM; with RXF 393 renal it was 37.8 µM. Further, the GI50 in the assay with ACHN renal was 45.9 µM; in the assay with NCI/ADR-RES ovarian, greater than 100 µM; in the assay on MALME-3M melanoma it was 96.5 µM; in the assay with KM12 colon, greater than 100 µM. The TGI in the assay on OVCAR-3 ovarian is 78.1 µM; in the assay with NCI-H460 lung it was greater than 100 µM; in the assay with M14 melanoma, greater than 100 µM; with TK-10 renal, greater than 100 µM; in the assay with A549 NSCLC, greater than 100 µM; in the assay with RXF 393 renal it was 98.2 µM. The TGI in the assay on ACHN renal, in the assay on NCI/ADR-RES ovarian, with MALME-3M melanoma and in the assay on KM12 colon was greater than 100 µM in each case.
